Measured values published in paper PMC12000511, “Molecular basis for the assembly of the Vps5-Vps17 SNX-BAR proteins with Retromer” (Nature Communications, 2025).
Where two headings read alike, the source gives them in different places. Where no end group is shown, it is not given here.

Assays:
ctRetromer = ctRetromer (Thermochaetoides thermophila, UniProt G0RZB5+G0S709); experiment: ITC, binding to ctRetromer; design: species or system Chaetomium thermophilum
Procedure: (§1) All the bacterial constructs were expressed in BL21(DE3) competent cells using standard isopropyl 1-thio-β-D-galactopyranoside induction or autoinduction method as described previously[39],[72],[73]. To obtain the Retromer trimer complex, the GST-tagged Vps29 and Vps35 co-expressed cell pellet were mixed with His-Vps26 and resuspended in lysis buffer containing 50 mM Tris-HCl pH 7.5, 200 mM NaCl, 5% glycerol, 50 μg/ml benzamidine and DNase I before passed through a Constant System TS-Series cell disruptor. […] For all constructs, the lysate was clarified by centrifugation and the supernatant was loaded onto either Talon® resin (Clonetech) or glutathione sepharose (GE healthcare) for initial purification. To obtain the correct stoichiometry ratio of the Retromer complex, both Talon® resin and glutathione sepharose (GE healthcare) were applied. […] The flow-through containing complex was further purified using size-exclusion chromatography (SEC) equilibrated with a buffer containing 50 mM Tris-HCl pH 7.5, 200 mM NaCl, 2 mM β-ME. […] To avoid the non-specific cleavage by the residual proteases such as thrombin, a tablet of protease inhibitor cocktail was added into the complex mixture. To remove the unbound fractions, the complex mixture was further purified using Superose 6 increase 10/300 GL column using the SEC buffer described above.
In brief, the clarified lysate was loaded onto glutathione sepharose (GE healthcare) and eluted using elution buffer containing 50 mM Tris-HCl pH 7.5, 200 mM NaCl, 5% glycerol, 20 mM glutathione reduced and 50 μg/ml benzamidine. The flow-through was further purified using SEC as the final purification step. To avoid the degradation, the constructs containing N-terminal disordered parts of Vps5 and Vps17 were used in fresh and experiments were finished within 3 days after purification.
(§2) All the proteins used for ITC experiments were prepared in buffer containing 50 mM Tris-HCl pH 7.5, 200 mM NaCl, 2 mM β-ME. […] In all cases, the ITC titration sequence consisted of an initial 0.4 μl (not used in data processing) followed by 12 serial injections of 3.22 μl each with 180 s intervals. The resulting titration data were integrated with Malvern software package by fitting and normalized data to a single-site binding model, yielding the thermodynamic parameters Kd, ∆H, ∆G and −T∆S for all binding experiments. The stoichiometry was refined initially, and if the value was close to 1, then N was set to exactly 1.0 for calculation. Data presented are the mean of triplicate titrations for each experiment.

[1] = test system: scRetromer and scSNX-BAR on supported membrane tubes; experiment: Supported membrane tube (SMT) assay; format: biochemical, Saccharomyces cerevisiae; conditions: scSNX-BAR and scRetromer on SMTs containing 5% PtdIns(3)P
Procedure: Supported membrane tubes were generated as described[46]. Briefly, glass coverslips were first washed with 3 M NaOH for 5 min and rinsed with water before a 60 min treatment with piranha solution (95% H2SO4/30% H2O2 3:2 v/v). Coverslips were rinsed with water and dried on a heat block at 90 °C. Coverslips were then silanized with 3-glycidyloxypropyltrimethoxysilane (Catalogue no. 440167, Sigma) for 5 h under vacuum, rinsed with acetone and dried. Polyethylene glycol coating was done by placing the coverslips in a beaker containing PEG400 (Sigma) at 90 °C for 60 h. Coverslips were washed with distilled water and stored for up to 2 months at room temperature in a closed container.
To generate supported membrane tubes, lipids were mixed from 10 mg/mL stocks in a glass vial and diluted to a final concentration of 1 mg/mL in chloroform. The same lipid mix was used throughout this study (5% PI(3)P, 15% DOPS, 0.1% fluorescent lipid tracer (Cy5.5 PE or Texas red DHPE), 79.5% egg-PC). Lipids were then spotted (typically 1 µL, corresponding to about 1 nmol) on the coverslips and dried for 30 min under vacuum. The coverslip was mounted on an IBIDI 6-channel µ-slide (µ-Slide VI 0.4. IBIDI, catalog no: 80606). Lipids were hydrated for 15 min with buffer (PBS) and SMTs were generated by injecting PBS into the chamber using an Aladdin Single-Syringe Pump (World Precision Instruments, model n°. AL-1000) at a flow rate of 1,5 mL/min for 5 min. SMTs were left to stabilize without flow for 5 min before the start of the experiment. Protein stocks (typically 1–2 µM) were first diluted in PBS and then injected in the chamber at a flow rate of 80 µL per minute. Cyclic peptides were added to the proteins from a 30 mM stock in DMSO to a final concentration of 300 µM. the protein/peptide mix was incubated for 1 min at room temp (23 °C) before being added to the SMTubes.

[2] = target: mouse VPS29 (mVPS29), long isoform (mouse); experiment: ITC; Microcal PEAQ ITC, 25 °C, 50 mM Tris-HCl pH 7.5, 200 mM NaCl, 2 mM β-ME; Vps5/Vps17/SNX1 construct or peptide (200-400 µM) titrated into 10-15 µM Retromer or Vps29; single-site model, N set to 1.0 if close to 1
[3] = target: ctRetromer (Chaetomium thermophilum Retromer trimer of ctVps35, ctVps26 and ctVps29) (Chaetomium thermophilum); experiment: as above
mVps29 = target: T1, mVps29 (Mus musculus, UniProt Q9QZ88); experiment: ITC, binding to mVps29; conditions: ITC, mVps29
T1 construct: GST (thrombin site) (N, cleaved yes); made in house; host or cells: E. coli BL21(DE3)
Procedure: as §1, §2

hRetromer = target: T2, hRetromer (Homo sapiens, UniProt Q96QK1+Q9UBQ0); experiment: ITC, binding to hRetromer; conditions: for binding to hRetromer: ITC, same conditions as ctRetromer
T2 construct: GST (N); made in house; host or cells: E. coli BL21(DE3) (general statement for bacterial constructs)
Procedure: as §1, §2

[4] = ctRetromer alone, ITC 25 °C, pH 7.5, 200 mM NaCl, mean of triplicate titrations
[5] = ITC, ctRetromer, Average of 3 batches

ctRetromer, sequence (G0RZB5 entry or part of it): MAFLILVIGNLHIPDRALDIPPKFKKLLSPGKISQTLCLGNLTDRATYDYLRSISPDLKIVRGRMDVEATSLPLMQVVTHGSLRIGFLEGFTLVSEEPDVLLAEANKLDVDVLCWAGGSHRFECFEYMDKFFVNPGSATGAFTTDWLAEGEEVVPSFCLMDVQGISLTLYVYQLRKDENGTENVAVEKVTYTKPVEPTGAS
ctRetromer, sequence (G0S709 entry or part of it): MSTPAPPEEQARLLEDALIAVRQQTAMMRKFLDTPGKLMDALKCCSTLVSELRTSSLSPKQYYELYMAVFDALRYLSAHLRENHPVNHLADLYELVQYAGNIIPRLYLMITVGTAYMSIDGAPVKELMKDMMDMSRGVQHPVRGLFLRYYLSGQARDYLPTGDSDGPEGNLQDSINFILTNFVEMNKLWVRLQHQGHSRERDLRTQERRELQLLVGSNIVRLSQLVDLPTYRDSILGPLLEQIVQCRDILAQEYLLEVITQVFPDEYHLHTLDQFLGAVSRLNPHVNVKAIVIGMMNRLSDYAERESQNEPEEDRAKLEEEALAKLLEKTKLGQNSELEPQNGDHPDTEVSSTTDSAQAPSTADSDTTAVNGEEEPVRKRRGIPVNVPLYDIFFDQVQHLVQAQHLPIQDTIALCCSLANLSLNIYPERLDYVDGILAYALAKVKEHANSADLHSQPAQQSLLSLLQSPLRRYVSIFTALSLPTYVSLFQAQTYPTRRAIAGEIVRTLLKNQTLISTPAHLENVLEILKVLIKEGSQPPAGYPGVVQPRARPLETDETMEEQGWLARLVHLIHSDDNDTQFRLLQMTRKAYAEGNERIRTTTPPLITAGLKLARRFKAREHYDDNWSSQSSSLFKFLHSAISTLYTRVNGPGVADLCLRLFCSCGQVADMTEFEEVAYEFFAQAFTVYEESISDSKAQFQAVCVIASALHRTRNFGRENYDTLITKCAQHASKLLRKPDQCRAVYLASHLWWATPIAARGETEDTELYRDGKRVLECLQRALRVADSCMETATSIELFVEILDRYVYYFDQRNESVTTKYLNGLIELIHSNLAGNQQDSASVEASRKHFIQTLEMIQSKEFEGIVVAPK
ctRetromer, sequence (G0S0E6 entry or part of it, further chain): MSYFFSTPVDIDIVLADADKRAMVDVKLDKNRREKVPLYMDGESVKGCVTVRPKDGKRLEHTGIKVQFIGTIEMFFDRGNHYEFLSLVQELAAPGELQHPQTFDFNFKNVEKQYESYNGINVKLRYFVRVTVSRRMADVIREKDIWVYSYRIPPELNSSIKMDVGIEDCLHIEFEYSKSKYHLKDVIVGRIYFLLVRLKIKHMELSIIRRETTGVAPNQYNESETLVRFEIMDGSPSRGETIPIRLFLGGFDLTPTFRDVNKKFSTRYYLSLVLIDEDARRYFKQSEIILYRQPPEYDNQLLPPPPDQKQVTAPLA

GST-ctVps5_61–80: GST-tagged ctVps5 residues 61–80 (VAKPKSLEAVEDDPLGPLGA; not fully specified (N-terminus); also: GST fusion, end not given here)
binding to ctRetromer (ctRetromer; ITC 25 °C, pH 7.5, 200 mM NaCl): bind very weakly | ΔG (ctRetromer; [4]): -5.76 ± 0.12 kcal/mol | ΔH (ctRetromer; [4]): -7.22 ± 1.94 kcal/mol | −TΔS (ctRetromer; [4]): 1.45 ± 2.07 kcal/mol | Kd (ctRetromer; ctRetromer alone, Microcal PEAQ ITC, 25 °C, 50 mM Tris-HCl pH 7.5, 200 mM NaCl, 2 mM β-ME, single-site model, mean of triplicate titrations, read-out: Kd): 60.1 ± 12.2 µM

SRATPRRIVAKPKSLEAVEDDPLGPLGA [ctVPS5 53 to 80]
Delta G (ctRetromer; [5]): -8.38 kcal/mol | Delta H (ctRetromer; [5]): -2.83 kcal/mol | minus T delta S (ctRetromer; [5]): -5.57 kcal/mol | Delta G (ctRetromer; ITC, ctRetromer, Batch 1): -8.4 kcal/mol | Delta H (ctRetromer; ITC, ctRetromer, Batch 1): -3.44 kcal/mol | minus T delta S (ctRetromer; ITC, ctRetromer, Batch 1): -4.89 kcal/mol | Delta G (ctRetromer; ITC, ctRetromer, Batch 2): -8.35 kcal/mol | Delta H (ctRetromer; ITC, ctRetromer, Batch 2): -2.43 kcal/mol | minus T delta S (ctRetromer; ITC, ctRetromer, Batch 2): -5.98 kcal/mol | Delta G (ctRetromer; ITC, ctRetromer, Batch 3): -8.38 kcal/mol | Delta H (ctRetromer; ITC, ctRetromer, Batch 3): -2.62 kcal/mol | minus T delta S (ctRetromer; ITC, ctRetromer, Batch 3): -5.85 kcal/mol

scRetromer-mRuby: purified recombinant scRetromer carrying mRuby
coat formation / recruitment on SMTs [1]: co-recruited to the tubes within a minute after their addition

ctVps5_(71–80) peptide
Kd [2]: 54.1 µM | dH [2]: -8 kcal/mol

SRATPRRIVAKPKSLEAVEDDPLGPLGA [ctVps5_53–80 peptide]
Kd (ctRetromer; read-out: Kd): 0.74 ± 0.05 µM

GST-ctVps5_(1–50) (domain or fragment)
Kd [3]: 40.1 µM | dH [3]: -2.7 kcal/mol

GST-ctVps5_(51–100) PL74AA (domain or fragment)
Kd [3]: 5.04 µM | dH [3]: -1.76 kcal/mol

GST-ctVps5_(1–185) (domain or fragment)
Kd [3]: 0.72 µM | dH [3]: -3.1 kcal/mol | Kd [2]: 4.82 µM | dH [2]: -0.91 kcal/mol

EDDPLGPLGA [ctVPS5 71 to 80]
Kd (ctRetromer; ITC, ctRetromer, Batch 1): No binding | Kd (ctRetromer; ITC, ctRetromer, Batch 2): No binding | Kd (ctRetromer; ITC, ctRetromer, Batch 3): No binding | Delta G (mVps29; Average of 3 batches): -5.8 kcal/mol | Delta H (mVps29; Average of 3 batches): -8.0 kcal/mol | Delta G (mVps29; Batch 1): -5.92 kcal/mol | Delta H (mVps29; Batch 1): -6.98 kcal/mol | Delta G (mVps29; Batch 2): -5.8 kcal/mol | Delta H (mVps29; Batch 2): -9.07 kcal/mol | Delta G (mVps29; Batch 3): -5.82 kcal/mol | Delta H (mVps29; Batch 3): -7.81 kcal/mol

B1: ctVps5_(53–80) peptide (peptide)
peptide: SRATPRRIVAKPKSLEAVEDDPLGPLGA
Kd [3]: 0.74 µM | dH [3]: -2.83 kcal/mol

B2: GST-ctVps5_(61–80) (domain or fragment)
chain: VAKPKSLEAVEDDPLGPLGA
modifications: also: GST fusion
Kd [3]: 60.1 µM | dH [3]: -7.22 kcal/mol

B3: GST-mSNX1_1–139: SNX1 N-terminal residues 1–139 (protein)
chain: MASGGGGCSASERLPPPFPGLEPESEGAAGGSEPEAGDSDTEGEDIFTGAAVVSKHQSPKITTSLLPINNGSKENGIHEEQDQEPQDLFADATVELSLDSTQNNQKKVLAKTLISLPPQEATNSSKPQPTYEELEEEEQ
modifications: left off: GST, end not stated, kept
Kd (hRetromer; ITC 25 °C, 50 mM Tris-HCl pH 7.5, 200 mM NaCl, 2 mM β-ME, mean of triplicate titrations): No binding detected | binding to hRetromer (hRetromer; listed as GST-hSNX1_1–139): no detectable interaction | binding to hRetromer (hRetromer; listed as human SNX1): no detectable association

B4: scSNX-BAR-GFP: scVps5–scVps17 heterodimer tagged with GFP (protein)
chain 1: MDYEDNLEAPVWDELNHEGDKTQSLVSNSIESIGQISTNEERKDNELLETTASFADKIDLDSAPEWKDPGLSVAGNPQLEEHDNSKADDLINSLAPEQDPIADLKNSTTQFIATRESGGALFTGNANSPLVFDDTIYDANTSPNTSKSISGRRSGKPRILFDSARAQRNSKRNHSLKAKRTTASDDTIKTPFTDPLKKAEKENEFVEEPLDDRNERRENNEGKFTASVEKNILEQVDRPLYNLPQTGANISSPAEVEENSEKFGKTKIGSKVPPTEKAVAFKVEVKDPVKVGELTSIHVEYTVISESSLLELKYAQVSRRYRDFRWLYRQLQNNHWGKVIPPPPEKQSVGSFKENFIENRRFQMESMLKKICQDPVLQKDKDFLLFLTSDDFSSESKKRAFLTGSGAINDSNDLSEVRISEIQLLGAEDAAEVLKNGGIDAESHKGFMSISFSSLPKYNEADEFFIEKKQKIDELEDNLKKLSKSLEMVDTSRNTLAASTEEFSSMVETLASLNVSEPNSELLNNFADVHKSIKSSLERSSLQETLTMGVMLDDYIRSLASVKAIFNQRSKLGYFLVVIENDMNKKHSQLGKLGQNIHSEKFREMRKEFQTLERRYNLTKKQWQAVGDKIKDEFQGFSTDKIREFRNGMEISLEAAIESQKECIELWETFYQTNL
chain 2: MTSAVPYDPYDDLDNNPFAEPQEEDSEPAATTTDGSSSMSEERVGTEQTAASVQDNGTANNIQNGLGEEGNATRSKTSNEHNENQQPSQPSERVILPERSDEKKKYTLLAKVTGLERFGSATGKKENPTIIFDCSTNLPTFRKQQYKNVKKSYEEFHQLFKYLNVAIQESFVPTLPSAYTTFGINSEEDRMKVTRNFQLWFNRLSQDPLIIRNEEVAFFIESDFNTYTPINKSKSLASGLKRKTLKQLAPPYDEITELAEFRPLVKSIYVVSQSLQEKLLRVSRNRKMMVQEENAFGQDFVNLDEHNKLYRRYGKILTAVGDIDSIIATMDMATLYDGLEWIVRDAYAVKEALTNRHFIMRNLVQAQQNSKAKQEQARRFRSRRDINPMKIDEALRQLKAAAKNEQVLTLKLQRITSNMIIERKQWISWYEEWIRSSIKEFTLRKIEYERKKLTLLERVRSDIRKADENGGLSRLGRHAVSNNNSDTSQTLKGDSWTGESNRKSQIPINKIAHTEFDDELFTEDDGYNSQDSDTTSLNARHAASLLGMSTK
coat formation / recruitment on SMTs [1]: co-recruited to the tubes within a minute after their addition
